Where “and” joins values, the source holds several entries; their conditions need not be identical. Equal entries are not always repeated. Structures can show the parent of a compound that is named as a salt. Where two headings read alike, the source gives them in different places.
Tests used:
[1] = target: T1, human serotonin transporter (hSERT) (Homo sapiens, UniProt P31645); test: biochemical; conditions: [125I]RTI-55, read-out: SERT binding affinity Ki
[2] = target: T2, human norepinephrine transporter (hNET) (Homo sapiens, UniProt P23975); test: cell-based; conditions: read-out: Reuptake Inhibition [3H]NE IC50
[3] = target: T3, human dopamine transporter (hDAT) (Homo sapiens, UniProt Q01959); test: cell-based
[4] = target: T3, human dopamine transporter (hDAT); test: biochemical; type: binding
[5] = target: T1, human serotonin transporter (hSERT); test: cell-based
[6] = target: T2, human norepinephrine transporter (hNET); test: biochemical; conditions: read-out: NET binding affinity Ki
[7] = system: male Swiss-Webster mice; test: Locomotor activity, compound alone, 1-h session; type: in vivo, mouse; conditions: for ED50: Mus musculus, ip, 1 h, read-out: ED50, dose producing 1/2 maximal stimulant activity (S, stimulation); for mode of action: ligand alone study; for ME/CME, Maximal Effect/Cocaine Maximal Effect: mouse locomotor activity; for effect on spontaneous LMA: compound alone
Protocol: (§1) 3. Locomotor Activity. […] Panels of infrared beams (16 beams) and corresponding photodetectors were located in the horizontal direction along the sides of each activity chamber. […] Just prior to placement in the apparatus, all mice received a saline injection IP. In all studies, horizontal activity (interruption of 1 photocell beam) was measured for 1-h within 10-min periods. Testing was conducted with one mouse per activity chamber. […] Plot the mean (±SEM) maximal stimulant activity (total counts in the 30 min period divided by 3) vs dose. Perform a log10 transformation of the 30 min period average counts for individual subjects to homogenize variances for subsequent analyses. […] Fit the 30 min period average counts across subjects to a function of log10 dose using least-squares curve-fitting analyses (i.e. TableCurve software from Jandel). Estimate the maximum effect from the resultant dose-response curve. […] Determine the ED50 (dose that produces ½ maximal stimulant activity) from a linear regression analysis of the ascending portion (up to the dose that produces a maximal effect) of the curve. […] Plot the mean (±SEM) activity (total counts in the 30 min period divided by 3) vs dose. Perform a log10 transformation of the 30 min period average counts for individual subjects to homogenize variances for subsequent analyses. Conduct an ANOVA and contrast (specified a priori) each dose of the test compound to the vehicle to determine significant (p<0.05) dose effects. Conduct a linear least-squares regression analysis; regress the min period average counts across subjects over the descending portion of the curve against the log10 dose of the test compound. […] Perform a log10 transformation of the 30 min period average counts for individual subjects to homogenize variances for subsequent analyses. […] Conduct a linear least-squares regression analysis; regress the 30 min period average counts across subjects over the descending portion of the curve against the log10 dose of the test compound. […] Locomotor Activity 8-hour time course/dose response study. […] A panel of infrared beams (16 beams) and corresponding photodetectors were located in the horizontal direction along the sides of each activity chamber. A 7.5-W incandescent light above each chamber provided dim illumination. Fans provided an 80-dB ambient noise level within the chamber. […] In all studies, horizontal activity (interruption of photocell beams) was measured for 8-h within 10-min periods, beginning at 0800 hrs (2 hours after lights on). Testing was conducted with one mouse per activity chamber. Compound alone study.

[8] = system: male Swiss-Webster mice; test: Cocaine/compound interaction study on locomotor activity; type: in vivo, mouse; conditions: for Attenuation of cocaine-induced LMA: 20 mg/kg of cocaine; for AD50, dose attenuating cocaine-induced stimulation by 50%: Table 8, ligand-cocaine interaction study, 20 mg/kg cocaine IP
[9] = system: male Swiss-Webster mice; test: Locomotor activity 8-hour time course/dose response study; conditions: for ED50: Mus musculus, ip, 8 h, read-out: ED50, dose producing 1/2 maximal stimulant activity (S, stimulation)
Protocol: as §1

[10] = Table 6, read-out: Reuptake Inhibition [3H]DA IC50
[11] = Table 5, [125I]RTI-55, oxalate salts, read-out: DAT binding affinity Ki
[12] = Reuptake Inhibition [3H]DA IC50, Table 6
[13] = Reuptake Inhibition [3H]5-HT IC50, Table 6
[14] = Table 5, [125I]RTI-55, oxalate salts
[15] = Table 8, mouse, IP, ligand alone, 1-h session

T3 sequence (Q01959 whole entry): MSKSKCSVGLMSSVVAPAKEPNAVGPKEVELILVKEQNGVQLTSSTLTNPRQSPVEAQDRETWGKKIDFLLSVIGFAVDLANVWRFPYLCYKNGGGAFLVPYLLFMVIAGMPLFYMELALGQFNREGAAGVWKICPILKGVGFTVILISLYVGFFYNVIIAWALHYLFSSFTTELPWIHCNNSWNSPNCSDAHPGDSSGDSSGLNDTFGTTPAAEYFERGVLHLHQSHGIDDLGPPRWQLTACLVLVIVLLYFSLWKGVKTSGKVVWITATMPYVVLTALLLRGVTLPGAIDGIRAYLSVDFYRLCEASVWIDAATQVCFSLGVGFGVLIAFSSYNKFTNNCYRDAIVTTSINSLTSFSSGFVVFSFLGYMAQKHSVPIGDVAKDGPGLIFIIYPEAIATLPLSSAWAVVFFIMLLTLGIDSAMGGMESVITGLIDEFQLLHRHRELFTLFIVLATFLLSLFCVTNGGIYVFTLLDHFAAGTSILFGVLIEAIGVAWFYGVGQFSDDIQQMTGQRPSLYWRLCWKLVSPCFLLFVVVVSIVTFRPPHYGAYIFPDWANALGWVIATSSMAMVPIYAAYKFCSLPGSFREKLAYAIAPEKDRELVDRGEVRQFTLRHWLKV
T2 sequence (P23975 whole entry): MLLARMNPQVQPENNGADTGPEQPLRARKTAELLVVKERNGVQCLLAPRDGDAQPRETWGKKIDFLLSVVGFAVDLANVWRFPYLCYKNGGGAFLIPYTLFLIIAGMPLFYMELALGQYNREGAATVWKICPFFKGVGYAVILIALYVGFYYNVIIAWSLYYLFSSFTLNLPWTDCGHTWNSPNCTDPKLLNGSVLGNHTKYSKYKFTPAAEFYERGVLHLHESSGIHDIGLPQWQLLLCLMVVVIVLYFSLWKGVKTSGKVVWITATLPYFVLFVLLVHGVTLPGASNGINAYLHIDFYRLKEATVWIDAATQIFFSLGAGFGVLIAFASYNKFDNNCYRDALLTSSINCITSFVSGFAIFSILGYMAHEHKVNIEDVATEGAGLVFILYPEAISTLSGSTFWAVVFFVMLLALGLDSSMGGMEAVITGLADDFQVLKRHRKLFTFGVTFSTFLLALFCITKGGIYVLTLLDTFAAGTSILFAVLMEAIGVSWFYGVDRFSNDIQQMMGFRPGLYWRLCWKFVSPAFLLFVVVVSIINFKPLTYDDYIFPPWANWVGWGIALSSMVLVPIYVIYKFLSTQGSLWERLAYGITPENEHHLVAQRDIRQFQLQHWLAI
T1 sequence (P31645 whole entry): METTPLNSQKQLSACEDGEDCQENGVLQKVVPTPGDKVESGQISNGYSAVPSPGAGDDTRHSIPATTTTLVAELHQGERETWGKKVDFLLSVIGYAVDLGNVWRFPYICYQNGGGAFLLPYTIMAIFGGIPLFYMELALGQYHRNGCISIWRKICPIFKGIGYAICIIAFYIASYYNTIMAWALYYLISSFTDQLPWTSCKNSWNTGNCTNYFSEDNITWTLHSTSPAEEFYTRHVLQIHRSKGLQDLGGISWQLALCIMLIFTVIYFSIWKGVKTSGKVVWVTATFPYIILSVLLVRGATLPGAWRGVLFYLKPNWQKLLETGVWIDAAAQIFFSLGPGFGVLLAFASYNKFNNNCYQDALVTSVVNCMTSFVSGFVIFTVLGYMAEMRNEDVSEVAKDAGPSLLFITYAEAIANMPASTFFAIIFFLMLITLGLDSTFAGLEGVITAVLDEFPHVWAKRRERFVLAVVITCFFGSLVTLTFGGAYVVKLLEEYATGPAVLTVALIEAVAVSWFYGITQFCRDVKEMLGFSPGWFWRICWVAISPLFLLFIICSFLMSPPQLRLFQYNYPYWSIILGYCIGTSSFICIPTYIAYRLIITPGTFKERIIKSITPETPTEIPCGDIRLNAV

Row | Structure (SMILES) | Ki [4] | Ki ([1]; Table 5, oxalate salts) | Discrimination Ratios (DR) [3H]DA reuptake/DAT binding ([3]; Table 6) | Binding Ratios NET/DAT ([4]; Table 5) | Binding Ratios SERT/DAT ([4]; Table 5) | IC50 ([2]; Table 6) | IC50 [3, 12] | IC50 [5, 13] | Ki [6, 14] | also measured
1 | O=C1CN(CCCCOC(c2ccc(F)cc2)c2ccc(F)cc2)CCN1 (as salt: oxalate) [Compound 27, 2-Oxo-4-[4-[bis(4-fluorophenyl)methoxy]butyl]piperazine] |  |  |  |  |  |  |  |  |  | melting point: 120 to 123 °C
2 | Fc1ccc(C(OCCCCN2CCN(c3ccccc3)CC2)c2ccc(F)cc2)cc1 (as salt: oxalate) [Compound 29, 1-Phenyl-4-[4-[bis(4-fluorophenyl)methoxy]butyl]piperazine] |  |  |  |  |  |  |  |  |  | melting point: 185 to 187 °C
3 | Fc1ccc(C(OCCCCN2CCN(c3ccccc3F)CC2)c2ccc(F)cc2)cc1 (as salt: oxalate) [Compound 30, 1-(2-Fluorophenyl)-4-[4-[bis(4-fluorophenyl)methoxy]butyl]piperazine] |  |  |  |  |  |  |  |  |  | melting point: 156 to 158 °C
4 | O=C(NCc1ccc(F)cc1)NC1CCN(CCCCOC(c2ccc(F)cc2)c2ccc(F)cc2)CC1 [Compound 18] | 1.7 nM |  |  |  |  |  |  |  |  | Ki ([1]; Table 3): 206 ± 37 nM; IC50 ([2]; Table 3-1): 1.67 ± 0.688 µM; IC50 ([3]; Reuptake Inhibition [3H]DA IC50, Table 3-1): 1050 ± 291 nM; Discrimination Ratios [3H]DA reuptake/DAT binding ([3]; Table 3-1): 618; Binding Ratios NET/DAT ([4]; Table 3): 25.3; Binding Ratios SERT/DAT ([4]; Table 3): 121; IC50 ([5]; Reuptake Inhibition [3H]5-HT IC50, Table 3-1, bound given in μM): > 10 µM; Ki ([6]; Table 3, [125I]RTI-55): 0.043 µM
5 | O=C1CN(CCCCOC(c2ccc(F)cc2)c2ccc(F)cc2)CCN1 [Compound 27, 2-Oxo-4-[4-[bis(4-fluorophenyl)methoxy]butyl]piperazine] |  | 1800 ± 450 nM | 0.6 | >2.4 | 0.4 |  |  |  |  | IC50 ([2]; Table 6, bound given in μM): > 10 µM; IC50 [3, 10]: 2290 ± 200 nM; Ki [4, 11]: 4100 ± 790 nM; IC50 ([5]; Table 6, read-out: Reuptake Inhibition [3H]5-HT IC50): 5.34 ± 0.95 µM; Ki ([6]; Table 5, bound given in μM): > 10 µM
6 | Fc1ccc(C(OCCCCN2CCN(c3ccccc3F)CC2)c2ccc(F)cc2)cc1 [Compound 30, 1-(2-Fluorophenyl)-4-[4-[bis(4-fluorophenyl)methoxy]butyl]piperazine] |  |  | 11.9 | 10.8 | 0.8 |  |  |  |  | ED50 [7]: 0.015 mg/kg; mode of action ([7]; Table 8): monophasic; ME/CME, Maximal Effect/Cocaine Maximal Effect ([7]; Table 8): 0.49; effect on spontaneous LMA ([7]; mouse): significant increase; Attenuation of cocaine-induced LMA [8]: failed to attenuate; AD50, dose attenuating cocaine-induced stimulation by 50% [8]: no attenuation
7 | Fc1ccc(C(OCCCCN2CCN(c3ccccc3Cl)CC2)c2ccc(F)cc2)cc1 [Compound 32, 1-(2-Chlorophenyl)-4-[4-[bis(4-fluorophenyl)methoxy]butyl]piperazine] | 67 ± 10 nM | 88 ± 29 nM | 4.9 | 8.1 | 1.3 | 0.29 ± 0.11 µM | 328 ± 34 nM | 0.119 ± 0.033 µM | 0.54 ± 0.18 µM | 
8 | Fc1ccc(C(OCCCCN2CCN(c3cccc(C(F)(F)F)c3)CC2)c2ccc(F)cc2)cc1 [Compound 36, 1-[3-(Trifluoromethyl)phenyl]-4-[4-[bis(4-fluorophenyl)methoxy]butyl]piperazine] |  |  | 11.7 | 6.8 | 6.8 |  |  |  | 0.222 ± 0.0097 µM | mode of action ([7]; Table 8): monophasic; ID50, dose producing 1/2 maximal depressant activity (I, inhibition) [7, 15]: 113 mg/kg and 113/I^g mg/kg; effect on spontaneous LMA ([7]; mouse): Significant suppression; AD50, dose attenuating cocaine-induced stimulation by 50% [8]: 18.35 mg/kg; ED50 [9]: 1.1 mg/kg; ME/CME, Maximal Effect/Cocaine Maximal Effect ([9]; Table 9, 8 hours): 0.46; mode of action ([9]; Table 9, ligand alone study, 8 hours): monophasic
9 | CC(=O)c1ccc(N2CCN(CCCCOC(c3ccc(F)cc3)c3ccc(F)cc3)CC2)cc1 [Compound 37, 1-[4-[4-[4-[Bis(4-fluorophenyl)methoxy]butyl]piperazin-1-yl]phenyl]ethanone] | 27 ± 8.6 nM | 42 ± 16 nM | 111.5 | 4.1 | 1.6 | 0.033 ± 0.015 µM | 3010 ± 8.6 nM | 1.23 ± 0.54 µM | 0.112 ± 0.038 µM | 
10 | O=[N+]([O-])c1ccc(N2CCN(CCCCOC(c3ccc(F)cc3)c3ccc(F)cc3)CC2)cc1 [Compound 38, 1-[4-Nitrophenyl]-4-[1-[bis(4-fluorophenyl)methoxy]-4-butyl]piperazine] | 60 ± 19 nM | 154 ± 44 nM | 39.2 | 4.0 | 2.6 | 0.23 ± 0.11 µM | 2350 ± 540 nM | 0.39 ± 0.13 µM | 0.239 ± 0.013 µM | 
11 | Fc1ccc(C(OCCCCN2CCN(Cc3ccc4c(c3)OCO4)CC2)c2ccc(F)cc2)cc1 [Compound 41, 1-Benzo[1,3]dioxol-5-ylmethyl-4-[4-[bis(4-fluorophenyl)methoxy]butyl]piperazine] | 33 ± 13 nM | 59 ± 22 nM | 30.3 | 1.7 | 1.8 | 0.043 ± 0.019 µM | 1000 ± 60 nM | 3.28 ± 0.61 µM | 0.055 ± 0.018 µM | 
12 | O=[N+]([O-])c1ccc(S(=O)(=O)N2CCN(CCCCOC(c3ccc(F)cc3)c3ccc(F)cc3)CC2)cc1 [Compound 42, 1-[4-[Bis(4-fluorophenyl)methoxy]butyl]-4-(4-nitrobenzenesulfonyl)piperazine] |  | 4930 ± 670 nM | 5.5 | >13.2 | 6.5 |  |  |  |  | IC50 ([2]; Table 6, bound given in μM): > 10 µM; IC50 [3, 10]: 4200 ± 1100 nM; Ki [4, 11]: 760 ± 220 nM; ED50, dose producing 1/2 maximal stimulant activity (S, stimulation) [7, 15]: no activity; Attenuation of cocaine-induced LMA [8]: failed to attenuate; AD50, dose attenuating cocaine-induced stimulation by 50% [8]: no attenuation; IC50 ([5]; Table 6, bound given in μM, read-out: Reuptake Inhibition [3H]5-HT IC50): > 10 µM; Ki ([6]; Table 5, bound given in μM): > 10 µM
13 | Fc1ccc(C(OCCN2CCN(CCCc3ccccc3)CC2)c2ccc(F)cc2)cc1 [GBR 12909, reference compound] |  |  |  |  |  |  |  |  |  | ED50 [7]: 6.24 mg/kg; ME/CME, Maximal Effect/Cocaine Maximal Effect ([7]; Table 8): 1.22; ED50 [9]: 6.9 mg/kg; ME/CME, Maximal Effect/Cocaine Maximal Effect ([9]; Table 9, 8 hours): 0.73

— patent publication US8772319B2 (priority 2004, dated 2014)
